The values below come from patent publication US7192953B2, “Antibacterial agents” (Vernalis (Oxford) Limited, priority 2002, dated 2007).

Common to all, as to type: cell-based
One assay concerns S. pneumoniae. The experiment in a line: MIC by agar plate dilution against clinical isolates of S. pneumoniae. The settings on record: 6 strains of S. pneumoniae (clinical isolates), 18 to 24 hr, 35° C; for MIC: Streptococcus pneumoniae, read-out: MIC or MIC range, S. pneumoniae. As for the experimental part: (§1) Minimal Inhibitory concentrations (MIC) of inhibitors against clinical isolates of S. pneumoniae, H. influenzae and M. catarrhalis obtained from the Public Health and Clinical Microbiology Laboratory, Addenbrooke's Hospital, Hills Road, Cambridge CB2 2QW, UK, were determined by a standard agar plate dilution method following recommended in British Society for Antimicrobial Chemotherapy Working Party. 1991. “A guide to sensitivity testing British Society for Antimicrobial Chemotherapy, London, United Kingdom”. Briefly Iso-Sensitest agar (pH 7.2: Oxoid, United Kingdom) was employed supplemented with 5% horse blood (Oxoid) and 20 μg of NAD (Sigma) per ml to support growth of fastidious bacteria. The inoculum used was approximately 10^4 colony forming units of each isolate contained in a volume of 1 μl. Plates were incubated 18 to 24 hr in air, or for fastidious bacteria an atmosphere enriched with 4–6% carbon dioxide at 35° C. The MIC was determined as the lowest concentration of an antimicrobial tested that inhibited growth of the inoculum, disregarding a single persisting colony or faint haze caused by the inoculation.
(§2) The compounds of the Examples were are antibacterially active in the above assays, The following table states the MICs or MIC ranges of the tested compounds against 6 strains of S. pneumoniae, 4 strains of H. influenzae and 3 strains of M. catarrhalis.

Another assay concerns H. influenzae. The experiment in a line: MIC by agar plate dilution against clinical isolates of H. influenzae. The settings on record: 4 strains of H. influenzae (clinical isolates), 18 to 24 hr, 35° C; for MIC: Haemophilus influenzae, read-out: MIC or MIC range, H. Influenzae. As for the experimental part: as §1, §2
In a further assay the test system is M. catarrhalis. The experiment in a line: MIC by agar plate dilution against clinical isolates of M. catarrhalis. The settings on record: 3 strains of M. catarrhalis (clinical isolates), 18 to 24 hr, 35° C; for MIC: Moraxella catarrhalis, read-out: MIC or MIC range, M. catarrhalis. Here is the method: as §1, §2

≈ marks a conversion by molar mass, not a printed value.

`COc1ccccc1NC(=O)N1CCCCN1C(=O)[C@H](CC1CCCC1)CN(O)C=O` [Example 20, 2-[(2R)-Cyclopentylmethyl-3-(formylhydroxyamino)-propionyl]-tetrahydropyridazine-1-Carboxylic acid (2-methoxyphenyl)amide]: the MIC in the assay on S. pneumoniae was 4 to 8 µg/mL (≈ 9.25 to 18.5 µM); with H. influenzae it was 0.5 to 2 µg/mL (≈ 1.16 to 4.62 µM); with M. catarrhalis, less than 0.03 µg/mL.
On to `O=CN(O)C[C@@H](CC1CCCC1)C(=O)N1CCCN1C(=O)c1ccc(F)cc1` [Example 35, N-{(2R)-Cyclopentylmethyl-3-[2-(4-fluorobenzoyl)-pyrazolidin-1-yl]-3-oxo-propyl}-N-hydroxyformamide], for which the MIC in the assay on S. pneumoniae was 16 µg/mL (≈ 40.9 µM); with H. influenzae, 4 to 8 µg/mL (≈ 10.2 to 20.4 µM); with M. catarrhalis, 0.125 µg/mL (≈ 0.319 µM).
As to `O=CN(O)C[C@@H](CC1CCCC1)C(=O)N1CCCCN1C(=O)c1ccccc1` [Example 3, N-{(2R)-Cyclopentylmethyl-3-[2-benzoyl-tetrahydropyridazin-1-yl]-3-oxo-propyl}-N-hydroxyformamide], the MIC with S. pneumoniae is 0.5 to 2 µg/mL (≈ 1.29 to 5.16 µM); in the assay on H. influenzae, 1 to 4 µg/mL (≈ 2.58 to 10.3 µM); with M. catarrhalis, 0.125 µg/mL (≈ 0.323 µM).
Regarding `O=CN(O)C[C@@H](CC1CCCC1)C(=O)N1CCCN1C(=O)Nc1ccc(F)cc1` [Example 40], the MIC is 8 to 16 µg/mL (≈ 19.7 to 39.4 µM) in the assay with S. pneumoniae, 0.125 to 2 µg/mL (≈ 0.308 to 4.92 µM) in the assay with H. influenzae and less than 0.125 µg/mL in the assay on M. catarrhalis.
Turning to `O=CN(O)C[C@@H](CC1CCCC1)C(=O)N1CCCCN1C(=O)Nc1ccc(F)cc1F` [Example 17, 2-[(2R)-Cyclopentylmethyl-3-(formylhydroxyamino)-propionyl]-tetrahydropyridazine-1-Carboxylic acid (2,4-bis(fluoro)phenyl)amide], the MIC was 4 to 8 µg/mL (≈ 9.12 to 18.2 µM) in the assay with S. pneumoniae, 0.125 µg/mL (≈ 0.285 µM) in the assay with H. influenzae and less than 0.125 µg/mL in the assay on M. catarrhalis.
On to `O=CN(O)C[C@@H](CC1CCCC1)C(=O)N1CCCCN1C(=O)Nc1ccc2c(c1)OCCO2` [Example 19, 2-[(2R)-Cyclopentylmethyl-3-(formylhydroxyamino)-propionyl]-tetrahydropyridazine-1-Carboxylic acid (2,3,4a,8a-tetrahydrobenzo[1,4]dioxin-6-yl)amide], for which the MIC is 2 to 4 µg/mL (≈ 4.34 to 8.69 µM) in the assay with S. pneumoniae, 0.125 to 4 µg/mL (≈ 0.271 to 8.69 µM) with H. influenzae and less than 0.125 µg/mL with M. catarrhalis.
The like results for `O=CN(O)C[C@@H](CC1CCCC1)C(=O)N1CCCCN1C(=O)Nc1ccccc1` [Example 14, 2-[(2R)-Cyclopentylmethyl-3-(formylhydroxyamino)-propionyl]-tetrahydropyridazine-1-Carboxylic acid phenylamide] were, in that order, 2 to 4 µg/mL (≈ 4.97 to 9.94 µM), 0.125 to 4 µg/mL (≈ 0.311 to 9.94 µM) and less than 0.125 µg/mL.
Consider `O=CN(O)C[C@@H](CC1CCCC1)C(=O)N1CCCCN1C(=O)c1ccc(N2CCOCC2)nc1` [Example 12, N-{(2R)-Cyclopentylmethyl-3-[2-(6-morpholin-4-yl-pyridine-3-Carbonyl)-tetrahydropyridazin-1-yl]-3-oxo-propyl}N-hydroxyformamide], for which the MIC was 2 to 16 µg/mL (≈ 4.22 to 33.8 µM) in the assay with S. pneumoniae, 16 to 32 µg/mL (≈ 33.8 to 67.6 µM) in the assay with H. influenzae and 1 µg/mL (≈ 2.11 µM) with M. catarrhalis.
Take `O=C(C[C@@H](CC1CCCC1)C(=O)N1CCCCN1C(=O)c1ccco1)NO` [Example 44, (3R)-Cyclopentylmethyl-4-[2-(furan-2-Carbonyl)-tetrahydropyridazin-1-yl]-N-hydroxy-4-oxo-butyramide]: the “MIC or MIC range, S. pneumoniae” value in the assay with S. pneumoniae was 2 to 4 µg/mL. Also, the “MIC or MIC range, H. Influenzae” value in the assay on H. influenzae is 0.06 to 0.125 µg/mL. Also, in the assay on M. catarrhalis, the “MIC or MIC range, M. catarrhalis” value came out at 0.6 µg/mL (≈ 1.59 µM).
For `COc1ccccc1NC(=O)N1CCCN1C(=O)[C@H](CC1CCCC1)CN(O)C=O` [Example 38, 2-[(2R)-Cyclopentylmethyl-3-(formylhydroxyamino)-propionyl]-pyrazolidine-1-Carboxylic acid (2-methoxyphenyl)amide], in that order: 8 to 16 µg/mL, 1 to 2 µg/mL and 0.25 µg/mL (≈ 0.597 µM).
`O=CN(O)C[C@@H](CC1CCCC1)C(=O)N1CCCCN1C(=O)Nc1ccc(C(F)(F)F)cc1` [Example 18, 2-[(2R)-Cyclopentylmethyl-3-(formylhydroxyamino)-propionyl]-tetrahydropyridazine-1-Carboxylic acid (4-trifluoromethylphenyl)amide]: the MIC with S. pneumoniae is 4 µg/mL (≈ 8.5 µM); with H. influenzae, 0.25 to 16 µg/mL (≈ 0.531 to 34 µM); in the assay with M. catarrhalis, less than 0.125 µg/mL.
For `O=CN(O)C[C@@H](CC1CCCC1)C(=O)N1CCCCN1C(=O)C1CCCCC1` [Example 6, N-{(2R)-Cyclopentylmethyl-3-[2-Cyclohexanecarbonyl-tetrahydropyridazin-1-yl]-3-oxo-propyl}-N-hydroxyformamide], in that order: 0.5 to 2 µg/mL (≈ 1.27 to 5.08 µM), 4 to 8 µg/mL (≈ 10.2 to 20.3 µM) and 0.06 µg/mL (≈ 0.152 µM).
With `O=CN(O)C[C@@H](CC1CCCC1)C(=O)N1CCCCN1C(=O)c1ccc2c(c1)OCO2` [Example 8, N-{(2R)-Cyclopentylmethyl-3-[2-(benzo[1,3]dioxole-5carbonyl)-tetrahydropyridazin-1-yl]-3-oxo-propyl}-N-hydroxyformamide], the MIC in the assay with S. pneumoniae is 0.5 to 4 µg/mL (≈ 1.16 to 9.27 µM); with H. influenzae it was 1 to 8 µg/mL (≈ 2.32 to 18.5 µM); with M. catarrhalis, 0.5 µg/mL (≈ 1.16 µM).
For `CC(C)(C)OC(=O)N1CCCN1C(=O)[C@H](CC1CCCC1)CN(O)C=O` [Example 23, 2-[(2R)-Cyclopentylmethyl-3-(formylhydroxyamino)-propionyl]-pyrazolidine-1-Carboxylic acid tert-butyl ester], the “MIC or MIC range, S. pneumoniae” value against S. pneumoniae lay within 8 to 16 µg/mL. Further, the “MIC or MIC range, H. Influenzae” value in the assay with H. influenzae fell in the range of 0.5 to 2 µg/mL. Besides, the “MIC or MIC range, M. catarrhalis” value against M. catarrhalis is less than 0.125 µg/mL.
For the compound `O=CN(O)C[C@@H](CC1CCCC1)C(=O)N1CCCCN1C(=O)c1ccoc1` [Example 9, N-{(2R)-Cyclopentylmethyl-3-[2-(furan-3-Carbonyl)-tetrahydropyridazin-1-yl]-3-oxo-propyl}-N-hydroxyformamide], the MIC is 0.5 to 2 µg/mL (≈ 1.32 to 5.3 µM) with S. pneumoniae, 0.125 to 8 µg/mL (≈ 0.331 to 21.2 µM) in the assay on H. influenzae and less than 0.93 µg/mL with M. catarrhalis.
On to `O=CN(O)C[C@@H](CC1CCCC1)C(=O)N1CCCN1C(=O)C1CCCCC1` [Example 31, N-{(2R)-Cyclopentylmethyl-3-[2-Cyclohexanecarbonyl-pyrazolidin-1-yl]-3-oxo-propyl}-N-hydroxyformamide], for which the MIC in the assay with S. pneumoniae is 8 µg/mL (≈ 21.1 µM); with H. influenzae it was 4 to 16 µg/mL (≈ 10.5 to 42.2 µM); in the assay with M. catarrhalis, 0.06 µg/mL (≈ 0.158 µM).
For `O=CN(O)C[C@@H](CC1CCCC1)C(=O)N1CCCCN1C(=O)Nc1ccc(F)cc1` [Example 16, 2-[(2R)-Cyclopentylmethyl-3-(formylhydroxyamino)propionyl]-tetrahydropyridazine-1-Carboxylic acid (4-fluorophenyl)amide], in that order: 4 to 8 µg/mL (≈ 9.51 to 19 µM), 0.125 to 4 µg/mL (≈ 0.297 to 9.51 µM) and less than 0.125 µg/mL.
For `O=CN(O)C[C@@H](CC1CCCC1)C(=O)N1CCCCN1C(=O)Cc1ccccc1` [Example 11, N-{(2R)-Cyclopentylmethyl-3-[2-phenylacetyl-tetrahydropyridazin-1-yl]-3-oxo-propyl}-N-hydroxyformamide], in that order: 0.5 to 4 µg/mL (≈ 1.25 to 9.96 µM), 0.25 to 2 µg/mL (≈ 0.623 to 4.98 µM) and 0.25 µg/mL (≈ 0.623 µM).
For `O=CN(O)C[C@@H](CC1CCCC1)C(=O)N1CCCN1C(=O)Nc1ccccc1` [Example 39, 2-[(2R)-Cyclopentylmethyl-3-(formylhydroxyamino)-propionyl]-pyrazolidine-1-Carboxylic acid phenylamide], in that order: 4 to 16 µg/mL (≈ 10.3 to 41.2 µM), 0.125 to 2 µg/mL (≈ 0.322 to 5.15 µM) and less than 0.125 µg/mL.
For `COc1cccc(NC(=O)N2CCCN2C(=O)[C@H](CC2CCCC2)CN(O)C=O)c1` [Example 41, 2-[(2R)-Cyclopentylmethyl-3-(formylhydroxyamino)-propionyl]-pyrazolidine-1-Carboxylic acid (3-methoxyphenyl)amide], the values for the MIC with S. pneumoniae, in the assay with H. influenzae and in the assay on M. catarrhalis were 4 to 8 µg/mL (≈ 9.56 to 19.1 µM), 0.125 to 2 µg/mL (≈ 0.299 to 4.78 µM) and less than 0.125 µg/mL, respectively.
For `O=CN(O)C[C@@H](CC1CCCC1)C(=O)N1CCCN1C(=O)Cc1ccccc1` [Example 29, N-{(2R)-Cyclopentylmethyl-3-[2-phenylacetyl-pyrazolidin-1-yl]-3-oxo-propyl}-N-hydroxyformamide], in that order: 4 to 8 µg/mL (≈ 10.3 to 20.6 µM), 2 to 16 µg/mL (≈ 5.16 to 41.3 µM) and 0.06 µg/mL (≈ 0.155 µM).
